Paper PMC9820082, “Synthesis of 9-Hydroxy-1H-Benzo[f]chromene Derivatives with Effective Cytotoxic Activity on MCF7/ADR, P-Glycoprotein Inhibitors, Cell Cycle Arrest and Apoptosis Effects” (International Journal of Molecular Sciences, 2022)

Tests used:
[1] = system: SKOV-3 (ovarian cancer cell line); assay: MTT colorimetric cytotoxicity assay, SKOV-3; format: cell-based, human; settings: Homo sapiens, SK-OV-3, 24 h, 24 h incubation, mean ± standard error
Description: (§1) Three human cancer cell lines, PC-3 (human prostate adenocarcinoma, metastatic), […], were used to test the anti-proliferative activity of β-enaminonitrile (4a–p) using the MTT colorimetric assay at concentrations ranging from 0–100 μM. The representative active cytotoxic substances 4a, 4c, 4d, 4e, 4g, 4i, 4k and 4o were also tested against two normal cell lines, human fetal lung (HFL-1) and human diploid fibroblasts (WI-38), as well as Adriamycin (ADR)-resistant human breast cancer cells (MCF-7/ADR). The reference cytotoxic agents, Vinblastine and Doxorubicin, were used in the tests.
(§2) The cytotoxic activity was appraised using the 3-(4,5-dimethylthiazol-2-yl)-2,5-diphenyltetrazolium bromide (MTT) colorimetric assay for the antitumor cell lines, as reported previously, and the ELISA assay for MCF-7/ADR [69].

[2] = system: PC-3 (human prostate adenocarcinoma, metastatic); assay: MTT colorimetric cytotoxicity assay, PC-3; format: cell-based; settings: Homo sapiens; MTT, 24 h incubation, mean ± standard error
Description: as §1
(§3) The tumor cell lines MCF-7, HepG-2, PC-3 MCF-7/ADR, HFL-1 and (WI-38) were obtained from the American Type Culture Collection (ATCC, Rockville, MD, USA). The cells were grown on RPMI-1640 medium supplemented with 10% inactivated fetal calf serum and 50 µg/mL gentamycin. The cells were maintained at 37 ^οC in a humidified atmosphere with 5% CO2 and were subcultured two to three times a week.
as §2

[3] = system: HeLa (cervical cancer cell line); assay: MTT colorimetric cytotoxicity assay, HeLa; format: cell-based, human; settings: 24 h incubation, mean ± standard error
Description: as §1, §2

[4] = system: Adriamycin (ADR)-resistant human breast cancer cells (MCF-7/ADR); assay: Cytotoxicity against MCF-7/ADR cells; format: cell-based; settings: 24 h exposure, mean ± standard error
Description: as §1, §3, §2

[5] = system: human diploid fibroblasts (WI-38); assay: Cytotoxicity against normal cell line WI-38; format: cell-based; settings: Homo sapiens, WI-38, 24 h, 24 h incubation, mean ± standard error
Description: as §1, §3, §2

human fetal lung (HFL-1) = assay: Cytotoxicity against normal cell line HFL-1; format: cell-based; settings: Homo sapiens, HFL1, 24 h, 24 h incubation, mean ± standard error
Description: as §1, §3, §2

MCF-7/ADR cells = assay: Annexin V/PI double staining flow cytometric apoptosis test; format: cell-based, human; settings: IC50 value, 24 h
Description: One of the optional mechanisms regarding the lethal action of chemotherapeutic medicines is blocking cell cycle progression, triggering apoptosis with otherwise mutual effect. […] The pivotal relation of the newly synthesized MCF-7/ADR “anticancer drugs” was further evaluated using the Annexin V/PI double staining flow cytometric test. […] In comparison to Doxorubicin’s 30% total apoptosis rate, which was nearly identical to 4a, 4c and 4g, compounds 4d, 4e and 4i were leading with percentages of 41%, 31% and 38%, respectively. Only compounds 4a (8.5%) and 4g (11%) had greater effects on necrosis compared to doxorubicin (5%). Other examined substances caused both early and late apoptosis in all treated cells (Figure 7b). Therefore, MCF-7/ADR cytotoxicity is induced by apoptotic processes, apparently without negative effects on P-gp.
(a) The dot plot of the Annexin V/PI-stained cells, treated with the indicated drugs. […] The data are expressed as the mean ± SD of three independent experiments in triplicate. Significances are shown in comparison to control cells (* p < 0.001). TEXT PRINTED IN THE PICTURE: (a) DOX.: 3.33%; 18.41%; 7.85% | (a) 4a: 8.66%; 18.17%; 4.24% | (a) 4c: 2.74%; 12.73%; 9.11% | (a) 4d: 4.85%; 27.44%; 8.73% | (a) 4e: 5.77%; 9.92%; 15.92% | (a) 4g: 11.04%; 3.94%; 7.38% | (a) 4i: 5.54%; 12.87%; 19.61% DOUBTS OF THE COPYIST ABOUT THIS PICTURE: The quadrant percentages in panel (a) are printed very small and blurred, so 3, 5, 6, 8 and 9 cannot be told apart with certainty. […] They are told apart only by their quadrant in the PI / Annexin V-FITC plot, and are listed upper left, upper right, lower right. / The sample line in each plot reads MCF7/ADR. In the 4g plot it is cut off as 'MCF7/AI'. / The panel 'Cont.' (untreated control: 1.56%, 0.15%, 0.48%) is left out because it is not a substance.

P-glycoprotein (P-gp) = assay: P-gp content in MCF-7/ADR cell lysate (human P-gp ELISA kit); format: cell-based; settings: human, MCF-7/ADR cells (cell lysate); MCF-7/ADR cell lysate, 48 h, ELISA
Description: P-glycoprotein (P-gp)-mediated multidrug resistance (MDR) is a phenomenon in which cells become resistant to structurally and mechanistically unrelated drugs, resulting in low intracellular drug concentrations. It is one of the noteworthy problems in malignant tumor clinical therapeutics.
The content of P-gp in the MCF-7/ADR cell lysates after incubation with varying conc. (12.5–100 µM) of tested compounds 4a, 4c, 4d, 4e, 4g and 4i following exposure for 48 hr was determined using a commercial human P-gp (Permeability Glycoprotein) ELISA Kit (MBS2506188, MyBioSource Inc., San Diego, CA, USA). Absorption was recorded at 450 nm with a Spectramax Gemini fluorescence microplate reader (Molecular Devices, Sunnyvale, CA, USA).

[6] = Homo sapiens, NCI/ADR-RES, 24 h

melting point | IC50 at 48 h (P-glycoprotein (P-gp)) | Structure (SMILES) | IC50 [1] | IC50 [2] | IC50 ([3]; Homo sapiens, HeLa, 24 h) | IC50 [4, 6] | IC50 [5] | IC50 [3] | IC50 (human fetal lung (HFL-1)) | IC50 [4] | necrosis (MCF-7/ADR cells)
193 to 194 °C |  | N#CC1=C(N)Oc2ccc3ccc(O)cc3c2C1c1c(F)cccc1F (stereo not shown) [4b, 3-Amino-1-(2,6-Difluorophenyl)-9-Hydroxy-1H-Benzo[f]chromene-2-Carbonitrile] | 2 ± 0.2 µM | 9.4 ± 0.5 µM | 6.7 ± 0.2 µM |  |  |  |  |  | 
196 to 197 °C |  | N#CC1=C(N)Oc2ccc3ccc(O)cc3c2C1c1c(Cl)cccc1Cl (stereo not shown) [4f, 3-Amino-1-(2,6-Dichlorophenyl)-9-Hydroxy-1H-Benzo[f]chromene-2-Carbonitrile] | 7 ± 0.4 µM | 26.6 ± 3.1 µM | 4.1 ± 0.3 µM |  |  |  |  |  | 
298 to 299 °C |  | N#CC1=C(N)Oc2ccc3ccc(O)cc3c2C1c1c(F)cccc1Cl (stereo not shown) [4h, 3-Amino-1-(2-Chloro-6-Flourophenyl)-9-Hydroxy-1H-Benzo[f]chromene-2-Carbonitrile] | 3.1 ± 0.2 µM | 11.6 ± 0.8 µM | 4.7 ± 0.5 µM |  |  |  |  |  | 
269 to 270 °C |  | COc1cccc(C2C(C#N)=C(N)Oc3ccc4ccc(O)cc4c32)c1O (stereo not shown) [4j, 3-Amino-1-(2-Hydroxy-3-Methoxyphenyl)-9-Hydroxy-1H-Benzo[f]chromene-2-Carbonitrile] | 97.4 ± 0.8 µM | 33.5 ± 3.5 µM | 50.4 ± 1.3 µM |  |  |  |  |  | 
242 to 243 °C |  | COc1ccc(C2C(C#N)=C(N)Oc3ccc4ccc(O)cc4c32)c(OC)c1 (stereo not shown) [4k, 3-Amino-1-(2,4-Dimethoxyphenyl)-9-Hydroxy-1H-Benzo[f]chromene-2-Carbonitrile] | 1.7 ± 0.3 µM | 3.7 ± 0.3 µM |  | 36.8 ± 0.2 µM | 25.3 ± 1.3 µM | 6.7 ± 0.1 µM | 24.2 ± 0.1 µM |  | 
268 to 269 °C |  | COc1ccc(C2C(C#N)=C(N)Oc3ccc4ccc(O)cc4c32)cc1OC (stereo not shown) [4l, 3-Amino-1-(3,4-Dimethoxyphenyl)-9-Hydroxy-1H-Benzo[f]chromene-2-Carbonitrile] | 4 ± 1.3 µM | 4.1 ± 0.9 µM | 5.3 ± 0.2 µM |  |  |  |  |  | 
265 to 266 °C |  | COc1ccc(C2C(C#N)=C(N)Oc3ccc4ccc(O)cc4c32)c(OC)c1OC (stereo not shown) [4m, 3-Amino-1-(2,3,4-Trimethoxyphenyl)-9-Hydroxy-1H-Benzo[f]chromene-2-Carbonitrile] | 3.4 ± 0.5 µM | 6.5 ± 1.3 µM | 8.8 ± 0.5 µM |  |  |  |  |  | 
235 to 236 °C |  | COc1cc(OC)c(C2C(C#N)=C(N)Oc3ccc4ccc(O)cc4c32)cc1OC (stereo not shown) [4n, 3-Amino-1-(2,4,5-Trimethoxyphenyl)-9-Hydroxy-1H-Benzo[f]chromene-2-Carbonitrile] | 2.4 ± 0.4 µM | 7.6 ± 1.2 µM | 4.9 ± 0.5 µM |  |  |  |  |  | 
252 to 253 °C |  | COc1cc(C2C(C#N)=C(N)Oc3ccc4ccc(O)cc4c32)cc(OC)c1OC (stereo not shown) [4o, 3-Amino-1-(3,4,5-Trimethoxyphenyl)-9-Hydroxy-1H-Benzo[f]chromene-2-Carbonitrile] | 3.1 ± 0.1 µM | 2.1 ± 0.8 µM | 5.7 ± 1.8 µM |  | 20.4 ± 0.3 µM |  | 22.2 ± 0.4 µM | 23.7 ± 0.4 µM | 
299 to 300 °C |  | N#CC1=C(N)Oc2ccc3ccc(O)cc3c2C1c1c(F)c(F)c(F)c(F)c1F (stereo not shown) [4p, 3-Amino-9-Hydroxy-1-(Perfluorophenyl)-1H-Benzo[f]chromene-2-Carbonitrile] | 4.2 ± 0.3 µM | 4.5 ± 1.2 µM | 3.9 ± 0.4 µM |  |  |  |  |  | 
 | 50.9 µM | COc1cccc2c1C(=O)c1c(O)c3c(c(O)c1C2=O)C[C@@](O)(C(=O)CO)C[C@@H]3O[C@H]1C[C@H](N)[C@H](O)[C@H](C)O1 [Doxorubicin, reference compound] | 1.1 ± 0.2 µM | 1.3 ± 0.3 µM | 1.5 ± 0.3 µM | 18.6 ± 0.2 µM |  |  |  |  | 5%
 |  | CC[C@]1(O)C[C@@H]2CN(CCc3c([nH]c4ccccc34)[C@@](C(=O)OC)(c3cc4c(cc3OC)N(C)[C@H]3[C@@](O)(C(=O)OC)[C@H](OC(C)=O)[C@]5(CC)C=CCN6CC[C@]43[C@@H]65)C2)C1 [Vinblastine, reference compound] | 3.2 ± 1.2 µM | 7.5 ± 1.3 µM | 5.7 ± 1.1 µM |  |  |  |  |  | 
